PMC11061419, “Identification of novel small molecule inhibitors of twin arginine translocation (Tat) pathway and their effect on the control of Campylobacter jejuni in chickens” (Frontiers in Microbiology, 2024)
≈ marks a conversion by molar mass, not a printed value. Where “and” joins values, the source holds several entries; their conditions need not be identical. Equal values may be shown once.

Key:
C. jejuni Au-50 = assay: Copper sulfate sensitivity dose–response assay in vitro (MIC/MBC); format: cell-based; details: Campylobacter jejuni; for MIC: AU50, read-out: MIC, Au-50 (Table S4); for MBC: AU50, 0.5 mM CuSO4, read-out: MBC, Au-50 (Table S5)
Experimental: (§1) Campylobacter jejuni 81–176 was the primary model strain used for the selection of the potential Tat-dependent inhibitors by high-throughput screening. C. jejuni 81–176 is resistant to 0.5 and 1 mM CuSO4 (Supplementary Figure S1). C. jejuni 81–176 tatC knockout mutant (C. jejuni ΔtatC) was used to confirm the Tat-dependent inhibitory effect of the selected SM. C. jejuni ΔtatC is susceptible to 0.5 mM and higher of CuSO4 ([Rajashekara et al., 2009]). The specificity of the Tat-dependent inhibitors was also tested on 11 additional Campylobacter strains (C. coli ATCC33559 and 10 other C. jejuni strains isolated from chickens) and 7 commensal/beneficial bacteria (Supplementary Table S1). The […] (Au-13, Au-20, Au-38, Au-39, Au-47, Au-50, Au-24, Au-32, Au-44, and Au-45) were selected based on their single nucleotide polymorphism (SNP)-type and percent of prevalence in chickens ([Merchant-Patel et al., 2008]; [Kumar et al., 2016]). Additional details about the bacterial strains are shown in Supplementary Table S1.
(§2) In total, 19 SMs were two-fold serially diluted to obtain a final SM concentration ranging from 6.25 to 0.012 μg/mL. C. jejuni 81–176 was then treated with a determined concentration of SM, as described in the copper sensitivity assay. […] The lowest bactericidal SM concentration was considered the MBC (no increase in OD600 over time and no viable cells were recovered on agar plate after challenge) (N = 3 replicates per SM). […] However, these SMs were two-fold serially diluted to obtain a final SM concentration ranging from 5 μg to 0.0625 μg for testing (N = two independent experiments with four technical replicate for each SM).

C. jejuni Au-13 = assay: as above; format: cell-based; details: Campylobacter jejuni; for MIC: AU13, read-out: MIC, Au-13 (Table S4); for MBC: AU13, 0.5 mM CuSO4, read-out: MBC, Au-13 (Table S5)
Experimental: as §1, §2

C. jejuni Au-38 = assay: as above; format: cell-based; details: Campylobacter jejuni; for MIC: AU38, read-out: MIC, Au-38 (Table S4); for MBC: AU38, 0.5 mM CuSO4, read-out: MBC, Au-38 (Table S5)
Experimental: as §1, §2

C. jejuni Au-44 = assay: as above; format: cell-based; details: Campylobacter jejuni; for MIC: AU44, read-out: MIC, Au-44 (Table S4); for MBC: AU44, 0.5 mM CuSO4, read-out: MBC, Au-44 (Table S5)
Experimental: as §1, §2

C. jejuni Au-24 = assay: as above; format: cell-based; details: Campylobacter jejuni; for MIC: AU24, read-out: MIC, Au-24 (Table S4); for MBC: AU24, 0.5 mM CuSO4, read-out: MBC, Au-24 (Table S5)
Experimental: as §1, §2

C. jejuni Au-47 = assay: as above; format: cell-based; details: Campylobacter jejuni; for MIC: AU47, read-out: MIC, Au-47 (Table S4); for MBC: AU47, 0.5 mM CuSO4, read-out: MBC, Au-47 (Table S5)
Experimental: as §1, §2

C. jejuni Au-32 = assay: as above; format: cell-based; details: Campylobacter jejuni; for MIC: AU32, read-out: MIC, Au-32 (Table S4); for MBC: AU32, 0.5 mM CuSO4, read-out: MBC, Au-32 (Table S5)
Experimental: as §1, §2

[1] = system: intracellular C. jejuni 81–176 in Caco-2 cells; assay: Copper sulfate sensitivity dose–response assay in infected Caco-2 colon epithelial cells; format: cell-based, Campylobacter jejuni; details: 0.5 mM CuSO4; for SM concentration that completely cleared intracellular C. jejuni 81–176 in Caco-2 cells (MBC in Caco2 cells): 24 h treatment; for C. jejuni 81–176 MBC in Caco2 cells: infected Caco-2 cells, 24 h
Experimental: The intracellular reduction in C. jejuni in the presence of a given SM (T1-T8) and 0.5 mM CuSO4 were evaluated using Caco-2 cells, as previously described ([Kumar et al., 2016]; [Deblais et al., 2019]). In brief, cells were infected for 2 h using a multiplicity of infection (MOI) of 100. Infected cells were treated with SM at a final concentration ranging between 5 and 0.315 μg/mL and incubated at 37°C for 24 h in a humidified 5% CO2 incubator. Following incubation, cells were washed once with 1X PBS, lysed with 0.1% Triton-100X, serially 10-fold diluted in 1X PBS, and plated on MH agar plate. Plates were incubated in microaerophilic conditions at 42°C for 24 h, to determine the intracellular survival. Cells not infected and not treated and cells infected and treated with 1% DMSO were used as controls (N = two independent experiments with four technical replicate for each SM).

[2] = system: Commensal/beneficial gut bacteria (n = 7); assay: Activity spectrum against commensal/beneficial gut bacteria at 6.25 μg/mL; format: cell-based; details: 6.25 μg/mL SM; for Commensal/beneficial gut bacteria inhibited at 6.25 μg/mL (species): Ef Enterococcus faecalis, Lb Levilactobacillus brevis, LGG Lacticaseibacillus rhamnosus GG
Experimental: A similar experiment was performed with seven commensal/beneficial gut bacteria to determine species specificity of these SMs. In brief, an overnight suspension was normalized at 0.05 OD600 using the appropriate medium and challenged with 6.25 μg/mL of SM. Details about the strains and their growing conditions are shown in Supplementary Table S1. Medium alone and 1% DMSO were used as controls (N = 3 replicates per SM).

[3] = system: C. jejuni (mixture of five strains) in chicken ceca; assay: C. jejuni persistence in ceca of 5-week-old colonized chickens; format: in vivo; details: for decrease of cecal C. jejuni colonization/load: 3 and 5-week-old chickens, 5-day treatment twice a day, 0.225 mg or 0.127 mg of SM per kg body weight; for reduction in C. jejuni population per gram of cecum compared with the DMSO control group: 5-week-old chickens, oral twice a day for 5 days, approximately 0.225 mg of SM per kg body weight
Experimental: Four SMs (T1, T2, T7, and T8) were selected from the initial list of eight SMs based on their low MBC in Caco2 cells (<5 μg SM/ml), low cytotoxicity indexes (<20% toxicity at 5 μg SM /ml), and their minimal effect on commensal bacterial species (less than two species inhibited by the SM out of the seven strains tested; Table 1). The antimicrobial efficacy of our SM was tested on 5-week-old chickens, to assess the clearance of C. jejuni load right before slaughter age. Overall, 5-week-old Campylobacter-free, i.e., specific pathogen-free [SPF] chickens were inoculated orally with a mixture of five C. jejuni strains (10^5 CFU/chicken, Supplementary Table S3). Rectal swabs were collected 1 day post-inoculation (DPI) to confirm C. jejuni colonization (CFU/g of feces) in birds. From 2 DPI to 7 DPI, groups of 4–5 chickens were treated orally twice a day with one of the four SMs (T1, T2, T7, or T8; approximately 0.225 mg of SM per kg body weight). Details of the treatment groups and the inoculum are shown in Supplementary Table S3.
For both experiments, C. jejuni colonized-chickens treated with 0.0001% DMSO and colonized chickens without additional carrier treatment (non-treated) were used as controls (n = 3–6 chicken per group). Details of the treatment groups and the inoculum are shown in Supplementary Table S3. Both 3 and 5-week-old chickens were euthanized at 7 DPI using carbon dioxide gas and ceca (cecal content and the pouch) and were aseptically collected. One of the ceca pairs was immediately stored at −80°C for microbiota studies. The other ceca were suspended in 1X PBS, homogenized, serially diluted, plated on MH media supplemented with Campylobacter Selective Supplement (CSS) agar plate, and incubated for 48 h at 42°C in microaerophilic conditions to determine C. jejuni load in the ceca (CFU/g of ceca).

## CSc1ccccc1-c1nnc(NC(=O)Cc2ccccc2)o1 [T7]
C. jejuni Au-50
  MIC: 0.08 µg/mL (≈ 0.246 µM)
  MBC: 0.32 µg/mL (≈ 0.983 µM)
C. jejuni Au-13
  MIC: 0.31 µg/mL (≈ 0.953 µM)
  MBC: 0.62 µg/mL (≈ 1.91 µM)
C. jejuni Au-38
  MIC: 0.16 µg/mL (≈ 0.492 µM)
  MBC: 0.32 µg/mL (≈ 0.983 µM)
C. jejuni Au-44
  MIC: 0.31 µg/mL (≈ 0.953 µM)
  MBC: 1.24 µg/mL (≈ 3.81 µM)
C. jejuni Au-24
  MIC: 0.08 µg/mL (≈ 0.246 µM)
  MBC: 0.16 µg/mL (≈ 0.492 µM)
C. jejuni Au-47
  MIC: 0.31 µg/mL (≈ 0.953 µM)
  MBC: 0.62 µg/mL (≈ 1.91 µM)
C. jejuni Au-32
  MIC: 0.08 µg/mL (≈ 0.246 µM)
  MBC: 0.16 µg/mL (≈ 0.492 µM)
[1]
  SM concentration that completely cleared intracellular C. jejuni 81–176 in Caco-2 cells (MBC in Caco2 cells): < 5 µg/mL
  C. jejuni 81–176 MBC in Caco2 cells: 2.5 µg/mL
[2]
  Growth inhibition at 6.25 μg/mL, Commensal/beneficial gut bacteria (strains inhibited/tested): 1/7
  Commensal/beneficial gut bacteria inhibited at 6.25 μg/mL (species): LGG
[3]
  decrease of cecal C. jejuni colonization/load: up to 1.2 log
  reduction in C. jejuni population per gram of cecum compared with the DMSO control group: 0.5 log

## CCCNC(=S)Nc1cc(OC)cc(OC)c1 [T1]
C. jejuni Au-50
  MIC: 0.31 µg/mL (≈ 1.22 µM)
  MBC: 0.62 µg/mL (≈ 2.44 µM)
C. jejuni Au-13
  MIC: 1.25 µg/mL (≈ 4.91 µM)
  MBC: 2.5 µg/mL (≈ 9.83 µM)
C. jejuni Au-38
  MIC: 0.31 µg/mL (≈ 1.22 µM)
  MBC: 0.62 µg/mL (≈ 2.44 µM)
C. jejuni Au-44
  MIC: 0.31 µg/mL (≈ 1.22 µM)
  MBC: 0.62 µg/mL (≈ 2.44 µM)
C. jejuni Au-24
  MIC: 0.16 µg/mL (≈ 0.629 µM)
  MBC: 0.32 µg/mL (≈ 1.26 µM)
C. jejuni Au-47
  MIC: 0.16 µg/mL (≈ 0.629 µM)
  MBC: 0.32 µg/mL (≈ 1.26 µM)
C. jejuni Au-32
  MIC: 0.62 µg/mL (≈ 2.44 µM)
  MBC: 1.24 µg/mL (≈ 4.88 µM)
[1]
  C. jejuni 81–176 MBC in Caco2 cells: 0.63 µg/mL
[2]
  Growth inhibition at 6.25 μg/mL, Commensal/beneficial gut bacteria (strains inhibited/tested): 0/7
[3]
  reduction in C. jejuni population per gram of cecum compared with the DMSO control group: did not reduce

## CC(C)(C)NC(=S)NNc1c(Cl)cncc1Cl [T2]
C. jejuni Au-50
  MIC: 0.31 µg/mL (≈ 1.06 µM)
  MBC: 0.62 µg/mL (≈ 2.11 µM)
C. jejuni Au-13
  MIC: 0.31 µg/mL (≈ 1.06 µM)
  MBC: 0.62 µg/mL (≈ 2.11 µM)
C. jejuni Au-38
  MIC: 0.62 µg/mL (≈ 2.11 µM)
  MBC: 1.24 µg/mL (≈ 4.23 µM)
C. jejuni Au-44
  MIC: 0.31 µg/mL (≈ 1.06 µM)
  MBC: 0.62 µg/mL (≈ 2.11 µM)
C. jejuni Au-24
  MIC: 0.31 µg/mL (≈ 1.06 µM)
  MBC: 0.62 µg/mL (≈ 2.11 µM)
C. jejuni Au-47
  MIC: 0.31 µg/mL (≈ 1.06 µM)
  MBC: 0.62 µg/mL (≈ 2.11 µM)
C. jejuni Au-32
  MIC: 0.62 µg/mL (≈ 2.11 µM)
  MBC: 1.24 µg/mL (≈ 4.23 µM)
[1]
  SM concentration that completely cleared intracellular C. jejuni 81–176 in Caco-2 cells (MBC in Caco2 cells): < 5 µg/mL
  C. jejuni 81–176 MBC in Caco2 cells: 1.25 µg/mL
[2]
  Growth inhibition at 6.25 μg/mL, Commensal/beneficial gut bacteria (strains inhibited/tested): 2/7
  Commensal/beneficial gut bacteria inhibited at 6.25 μg/mL (species): Lb and Ef
[3]
  decrease of cecal C. jejuni colonization/load: up to 1.2 log
  reduction in C. jejuni population per gram of cecum compared with the DMSO control group: 1.2 log

## CCN(CC)/C(C)=N/C(=O)Nc1ccccc1 [T8]
C. jejuni Au-50
  MIC: 0.25 µg/mL (≈ 1.07 µM)
  MBC: 0.5 µg/mL (≈ 2.14 µM)
C. jejuni Au-13
  MIC: 0.06 µg/mL (≈ 0.257 µM)
  MBC: 0.06 µg/mL (≈ 0.257 µM)
C. jejuni Au-38
  MIC: 0.06 µg/mL (≈ 0.257 µM)
  MBC: 0.06 µg/mL (≈ 0.257 µM)
C. jejuni Au-44
  MIC: 0.06 µg/mL (≈ 0.257 µM)
  MBC: 0.12 µg/mL (≈ 0.514 µM)
C. jejuni Au-24
  MIC: 0.06 µg/mL (≈ 0.257 µM)
  MBC: 0.06 µg/mL (≈ 0.257 µM)
C. jejuni Au-47
  MIC: 0.06 µg/mL (≈ 0.257 µM)
  MBC: 0.06 µg/mL (≈ 0.257 µM)
C. jejuni Au-32
  MIC: 0.25 µg/mL (≈ 1.07 µM)
  MBC: 0.25 µg/mL (≈ 1.07 µM)
[1]
  SM concentration that completely cleared intracellular C. jejuni 81–176 in Caco-2 cells (MBC in Caco2 cells): < 5 µg/mL and 5 µg/mL
  C. jejuni 81–176 MBC in Caco2 cells: 5 µg/mL
[2]
  Growth inhibition at 6.25 μg/mL, Commensal/beneficial gut bacteria (strains inhibited/tested): 2/7
  Commensal/beneficial gut bacteria inhibited at 6.25 μg/mL (species): Lb and Ef
[3]
  reduction in C. jejuni population per gram of cecum compared with the DMSO control group: 0.5 log
